{
  "source": "ChEMBL document CHEMBL3425467",
  "about": "“Synthesis, cytotoxicity and haemolytic activity of Pulsatilla saponin A, D derivatives” (Bioorg Med Chem Lett, 2015)",
  "key": {"[1]": {"experiment": "Cytotoxicity against human Bel7402 cells assessed as inhibition of cell growth after 24 hrs by MTT assay", "assay_type": "functional, cell-based", "details": "Bel-7402, 24 h"}, "[2]": {"experiment": "Cytotoxicity against human HL7702 cells assessed as inhibition of cell growth after 24 hrs by MTT assay", "assay_type": "cell-based", "details": "L02, 24 h"}, "[3]": {"experiment": "Ratio of hemolytic HD50 for PSD to hemolytic HD50 for compound in rabbit RBC", "assay_type": "ADME, cell-based, Oryctolagus cuniculus", "details": "erythrocyte"}, "A549": {"tested_on": "A549", "experiment": "Cytotoxicity against human A549 cells assessed as inhibition of cell growth after 24 hrs by MTT assay", "assay_type": "functional, cell-based", "details": "A549, 24 h"}, "SMMC-7721": {"tested_on": "SMMC-7721", "experiment": "Cytotoxicity against human SMMC7721 cells assessed as inhibition of cell growth after 24 hrs by MTT assay", "assay_type": "functional, cell-based", "details": "SMMC-7721, 24 h"}, "[4]": {"experiment": "Hemolytic activity in rabbit RBC assessed as induction of hemolysis", "assay_type": "cell-based, Oryctolagus cuniculus, Erythrocyte", "details": "red blood cells, read-out: HD50 (the source's name)"}, "[5]": {"experiment": "Induction of hemolysis in erythrocytes (unknown origin)", "assay_type": "cell-based, Erythrocyte", "details": "read-out: HD50 (the source's name)"}},
  "data": [
    {"smiles": "C[C@@H]1O[C@@H](O[C@H]2[C@H](O[C@H]3CC[C@@]4(C)[C@@H](CC[C@]5(C)[C@@H]4CC=C4[C@@H]6CC(C)(C)CC[C@]6(C(=O)NCC(=O)O)CC[C@]45C)[C@]3(C)CO)OC[C@H](O[C@@H]3O[C@H](CO)[C@@H](O)[C@H](O)[C@H]3O)[C@@H]2O)[C@H](O)[C@H](O)[C@H]1O", "values": [
      {"measurement": "IC50", "setting": "[1]", "value": 4.3, "unit": "µM"},
      {"measurement": "IC50", "setting": "[2]", "value": 1.5, "unit": "µM"},
      {"measurement": "Ratio", "setting": "[3]", "value": 20},
      {"measurement": "IC50", "setting": "A549", "value": 5.7, "unit": "µM"},
      {"measurement": "IC50", "setting": "SMMC-7721", "value": 1.6, "unit": "µM"},
      {"measurement": "HC50", "setting": "[4]", "value": 160, "unit": "µM"}
    ]},
    {"smiles": "C[C@@H]1O[C@@H](O[C@H]2[C@H](O[C@H]3CC[C@@]4(C)[C@@H](CC[C@]5(C)[C@@H]4CC=C4[C@@H]6CC(C)(C)CC[C@]6(C(=O)O)CC[C@]45C)[C@]3(C)CO)OC[C@H](O)[C@@H]2O)[C@H](O)[C@H](O)[C@H]1O", "note": "[ALPHA-HEDERIN]", "values": [
      {"measurement": "IC50", "setting": "[1]", "value": 13.2, "unit": "µM"},
      {"measurement": "IC50", "setting": "[2]", "value": 11.5, "unit": "µM"},
      {"measurement": "IC50", "setting": "A549", "value": 15.3, "unit": "µM"},
      {"measurement": "IC50", "setting": "SMMC-7721", "value": 10.8, "unit": "µM"},
      {"measurement": "HC50", "setting": "[5]", "value": 10, "unit": "µM"},
      {"measurement": "HC50", "setting": "[4]", "value": 7.5, "unit": "µM"}
    ]},
    {"smiles": "C[C@@H]1O[C@@H](O[C@H]2[C@H](O[C@H]3CC[C@@]4(C)[C@@H](CC[C@]5(C)[C@@H]4CC=C4[C@@H]6CC(C)(C)CC[C@]6(C(=O)N6CCN(CCC(=O)O)CC6)CC[C@]45C)[C@]3(C)CO)OC[C@H](O[C@@H]3O[C@H](CO)[C@@H](O)[C@H](O)[C@H]3O)[C@@H]2O)[C@H](O)[C@H](O)[C@H]1O", "values": [
      {"measurement": "IC50", "setting": "[1]", "value": 9.8, "unit": "µM"},
      {"measurement": "IC50", "setting": "[2]", "value": 1.3, "unit": "µM"},
      {"measurement": "Ratio", "setting": "[3]", "value": 20},
      {"measurement": "IC50", "setting": "A549", "value": 1.9, "unit": "µM"},
      {"measurement": "IC50", "setting": "SMMC-7721", "value": 14.5, "unit": "µM"},
      {"measurement": "HC50", "setting": "[4]", "value": 119, "unit": "µM"}
    ]},
    {"smiles": "C[C@@H]1O[C@@H](O[C@H]2[C@H](O[C@H]3CC[C@@]4(C)[C@@H](CC[C@]5(C)[C@@H]4CC=C4[C@@H]6CC(C)(C)CC[C@]6(C(=O)N[C@H](CO)C(=O)O)CC[C@]45C)[C@]3(C)CO)OC[C@H](O[C@@H]3O[C@H](CO)[C@@H](O)[C@H](O)[C@H]3O)[C@@H]2O)[C@H](O)[C@H](O)[C@H]1O", "values": [
      {"measurement": "IC50", "setting": "[1]", "value": 93.1, "unit": "µM"},
      {"measurement": "IC50", "setting": "[2]", "value": "> 100", "unit": "µM"},
      {"measurement": "Ratio", "setting": "[3]", "value": 20},
      {"measurement": "IC50", "setting": "A549", "value": 72.3, "unit": "µM"},
      {"measurement": "IC50", "setting": "SMMC-7721", "value": "> 100", "unit": "µM"},
      {"measurement": "HC50", "setting": "[4]", "value": 60.3, "unit": "µM"}
    ]},
    {"smiles": "C[C@@H]1O[C@@H](O[C@H]2[C@H](O[C@H]3CC[C@@]4(C)[C@@H](CC[C@]5(C)[C@@H]4CC=C4[C@@H]6CC(C)(C)CC[C@]6(C(=O)O)CC[C@]45C)[C@]3(C)CO)OC[C@H](O[C@@H]3O[C@H](CO)[C@@H](O)[C@H](O)[C@H]3O)[C@@H]2O)[C@H](O)[C@H](O)[C@H]1O", "note": "[HEDERACOLCHISIDE A]", "values": [
      {"measurement": "IC50", "setting": "[1]", "value": 8.9, "unit": "µM"},
      {"measurement": "IC50", "setting": "[2]", "value": 12.6, "unit": "µM"},
      {"measurement": "IC50", "setting": "A549", "value": 6.3, "unit": "µM"},
      {"measurement": "IC50", "setting": "SMMC-7721", "value": 7.6, "unit": "µM"},
      {"measurement": "HC50", "setting": "[5]", "value": 22, "unit": "µM"},
      {"measurement": "HC50", "setting": "[4]", "value": 6.3, "unit": "µM"}
    ]}
  ]
}
